How the values were obtained:
[1] = biological target: T1, βarr2 recruitment to agonist-activated β2V2R (Homo sapiens, UniProt P32121); assay: DiscoveRx PathHunter β-arrestin recruitment assay in U2OS cells; assay type: cell-based; details: series of compound concentrations, 30 min pretreatment, isoproterenol dose-response
T1 construct: host or cells: U2OS
Protocol: β-arrestin recruitment to the agonist-activated receptor (02V2R) was measured using the DiscoveRx PathHunter β-arrestin assay (Ahn, S. et al. Allosteric “beta-blocker” isolated from a DNA-encoded small molecule library. Proc Natl Acad Sci U SA 114, 1708-1713, doi:10.1073/pnas.1620645114 (2017)). […] Agonist-stimulated recruitment of βarr2 to the receptor results in the formation of functionally active β-gal enzyme. Addition of substrate generates a chemiluminescence signal directly correlated to the extent of recruitment. U2OS cells co-expressing β2V2R and βarr2 were plated in 96-well clear-bottomed plates at a density of 25,000 cells per well (80 μL per well), 24 hours prior to compound treatment. On the day of experiment, cells were first treated with compound or vehicle for 30 min, followed by agonist (Iso) stimulation for 60 min at 37° C. Cells were then treated with PathHunter™ detection reagents for 90 min at 37° C., and luminescence signals were measured using a CLARIOstar microplate reader (BMG Labtech Inc., Cary, N.C.).

βarr2 = βarr2 (Rattus norvegicus, UniProt P29067); assay: Negative-stain electron microscopy, 2D class averages of βarr2; parameters: final βarr2 (truncated βarr2 at 394) concentration of ˜1 mg/mL; made in house; details: control βarr 97% monomeric
Chain of βarr2 (P29067 1-394): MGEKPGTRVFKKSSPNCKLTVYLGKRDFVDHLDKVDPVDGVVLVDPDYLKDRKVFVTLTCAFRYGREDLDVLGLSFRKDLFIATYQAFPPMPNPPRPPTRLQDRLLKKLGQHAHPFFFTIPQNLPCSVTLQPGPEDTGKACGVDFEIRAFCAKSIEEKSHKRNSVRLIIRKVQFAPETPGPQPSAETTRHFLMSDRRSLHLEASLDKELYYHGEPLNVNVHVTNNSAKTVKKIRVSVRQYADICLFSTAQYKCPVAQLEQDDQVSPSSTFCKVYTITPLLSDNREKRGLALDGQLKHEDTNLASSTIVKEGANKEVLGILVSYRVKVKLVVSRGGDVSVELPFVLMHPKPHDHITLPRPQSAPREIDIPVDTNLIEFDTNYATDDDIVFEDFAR
Protocol: To prepare for EM visualization of the architecture and structural organization of βarr2-Cmpd30 complexes, purified βarr2 (394) was diluted to 0.5 μM and incubated with 5 μM Cmpd-30 or vehicle (DMSO) in HN buffer (20 mM HEPES pH 7.4 and 150 mM NaCl) for 7 min at room temperature followed by dilution 10× into HN buffer containing 1 μM Cmpd-30, before negative staining. The positive control, βarr2 bound to IP6 sample was prepared similarly (5 μM and 250 μM, respectively) and was diluted 100× into HN buffer containing 10 μM IP6. Grids were prepared using conventional negative-staining protocols as described previously (Peisley, A. & Skiniotis, G. 2D Projection Analysis of GPCR Complexes by Negative Stain Electron Microscopy. Methods Mol Biol 1335, 29-38, doi:10.1007/978-1-4939-2914-6_3 (2015). Briefly, 3 μL of samples were applied onto a glow-discharged EM carbon-coated copper grid, adsorbed on the grid surface, blotted, stained, and air dried before imaging. EM grids were examined with a FEI Tecnai G2 Twin electron microscope and operated at an acceleration voltage of 120 kV. Images were recorded with an Eagle 2K CCD camera at a magnification of ×65,200 and a defocus value of ˜1.5 μm. Two-dimensional EM reference-free alignment and classification of particle projections were performed with the iterative stable alignment and clustering procedure (ISAC)(Yang, Z., et al., Iterative stable alignment and clustering of 2D transmission electron microscope images. Structure 20, 237-247, doi:10.1016/j.str.2011.12.007 (2012)). EM single particles were both automatically and manually selected using Boxer (part of the EMAN 2.1 software suite)(Tang, G. et EMAN2: an extensible image processing suite for electron microscopy. J Struct Biol 157, 38-46, doi:10.1016/j.jsb.2006.05.009 (2007)). A total of ˜250,000 0° particles projections were picked representing all the three βarr2 samples (with vehicle, Cmpd-30 or IP6) and windowed into 96×96-pixel images (with the RELION 2.1-beta-1 software package) and subjected to ISAC. […]

T1 sequence (P32121 whole entry): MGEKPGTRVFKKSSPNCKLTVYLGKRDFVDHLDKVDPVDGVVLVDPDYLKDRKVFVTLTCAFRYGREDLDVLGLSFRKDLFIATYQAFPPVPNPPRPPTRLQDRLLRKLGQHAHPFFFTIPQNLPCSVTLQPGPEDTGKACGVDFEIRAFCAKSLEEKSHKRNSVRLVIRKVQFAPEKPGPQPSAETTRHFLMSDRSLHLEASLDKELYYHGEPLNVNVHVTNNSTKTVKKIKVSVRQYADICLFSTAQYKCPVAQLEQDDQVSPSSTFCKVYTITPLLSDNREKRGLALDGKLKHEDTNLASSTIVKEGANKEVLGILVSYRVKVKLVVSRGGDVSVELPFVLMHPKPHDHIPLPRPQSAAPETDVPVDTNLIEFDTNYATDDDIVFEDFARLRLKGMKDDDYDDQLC

| Structure (SMILES) | maximal agonist induced βarr recruitment response [1] | class averages represented as homo-oligomers (dimers/trimers) (βarr2) [%] |
| --- | --- | --- |
| COc1cc(Cc2nccc3cc(OC)c(OC)cc23)c(C(C)=O)cc1OC [C29, 1-[2-[(6,7-dimethoxyisoquinolin-1-yl)methyl]-4,5-dimethoxyphenyl]ethanone] | significantly diminished | – |
| O=P(O)(O)OC1C(OP(=O)(O)O)C(OP(=O)(O)O)C(OP(=O)(O)O)C(OP(=O)(O)O)C1OP(=O)(O)O (centres unmarked) [IP6, inositol hexakisphosphate, reference compound] | – | 100 |

— US20220315574A1, “Beta-Arrestin-Modulating Compounds and Methods of Using Same” (Duke University, priority 2019, published 2022)
